Results on 18 compounds are retold here after paper PMC4601051, “Discovery of Indoline-2-carboxamide Derivatives as a New Class of Brain-Penetrant Inhibitors of Trypanosoma brucei” (Journal of Medicinal Chemistry, 2015).

System in the first series: not listed separately
Briefly: Microsomal intrinsic clearance (Clint), mouse. Type of series: in vitro ADME. The conditions noted are these: mouse liver microsomes, 0.5 μM compound. On the procedure:
(§1) Each test compound (0.5 μM) was incubated with pooled female CDI mouse liver microsomes, pooled male Sprague–Dawley rat microsomes, or pooled mixed gender human liver microsomes (Tebu-Bio, UK; 0.5 mg/mL 50 mM potassium phosphate buffer, pH 7.4) and the reaction started with addition of excess NADPH (8 mg/mL, 50 mM potassium phosphate buffer, pH 7.4). Immediately, at time zero, then at 3, 6, 9, 15, and 30 min, an aliquot (50 μL) of the incubation mixture was removed and mixed with acetonitrile (100 μL) to stop the reaction. Internal standard was added to all samples, and the samples were centrifuged at 1825g for 10 min to sediment precipitated protein. The plates were then sealed prior to UPLC/MS/MS analysis using a Quattro Premier XE (Waters Corporation, USA).
(§2) XLfit (IDBS, UK) was used to calculate the exponential decay and consequently the rate constant (k) from the ratio of peak area of test compound to internal standard at each time point.
For `CCNC(=O)C1Cc2ccccc2N1C(=O)COc1ccc(Cl)cc1` (centres unmarked) [Compound 49], the “mouse microsomal intrinsic clearance” value was determined as 6.2 mL min^–1 g^–1.
Same read-out and setting: next, `CNC(=O)C1Cc2cc(F)c(F)cc2N1C(=O)COc1ccc(F)cc1` (centres unmarked) [Compound 57]: 2.0 mL min^–1 g^–1; `CNC(=O)C1N(C(=O)COc2ccc(Cl)cc2)c2ccccc2C1(C)C` (centres unmarked) [Compound 63]: 14 mL min^–1 g^–1; `CCCCNC(=O)C1Cc2ccccc2N1C(=O)COc1ccc(Cl)cc1` (centres unmarked) [Compound 50]: 27 mL min^–1 g^–1.
On the same count and under the same terms, next, `CNC(=O)C1Cc2ccccc2N1C(=O)Cc1ccc(Cl)cc1` (centres unmarked) [Compound 40]: 4.4 mL min^–1 g^–1; `CNC(=O)C1Cc2ccccc2N1C(=O)Cc1ccc(C(F)(F)F)cc1` (centres unmarked) [Compound 42]: 3.0 mL min^–1 g^–1; `CNC(=O)C1Cc2ccccc2N1C(=O)COc1ccc(C)cc1` (centres unmarked) [Compound 34]: 6.5 mL min^–1 g^–1.
Same read-out and setting: then `CNC(=O)C1Cc2ccccc2N1C(=O)Cc1ccc(F)cc1F` (centres unmarked) [Compound 44], with 0.5 mL min^–1 g^–1; and `CNC(=O)C1Cc2cc(F)cc(F)c2N1C(=O)COc1ccc(F)cc1` (centres unmarked) [Compound 58], with 2.9 mL min^–1 g^–1.
As to `O=C(NC1CC1)C1Cc2ccccc2N1C(=O)COc1ccc(Cl)cc1` (centres unmarked) [Compound 51], the “mouse microsomal intrinsic clearance” value came out at 5.5 mL min^–1 g^–1.
Same read-out and setting: then `CNC(=O)C1Cc2ccccc2N1C(=O)COc1ccccc1` (centres unmarked) [Compound 31], with 6.9 mL min^–1 g^–1; and `CNC(=O)C1Cc2ccccc2N1C(=O)Cc1ccc(F)cc1` (centres unmarked) [Compound 43], with 0.8 mL min^–1 g^–1.
For `CNC(=O)C1Cc2cc(F)ccc2N1C(=O)COc1ccc(Cl)cc1` (centres unmarked) [Compound 54], the “mouse microsomal intrinsic clearance” value is recorded as 2.8 mL min^–1 g^–1.
Take `CNC(=O)C1Cc2c(cc(F)c(F)c2F)N1C(=O)COc1ccc(Cl)cc1` (centres unmarked) [Compound 59]: the “mouse microsomal intrinsic clearance” value is on record as 3.7 mL min^–1 g^–1.
On the same count and under the same terms, then `CNC(=O)[C@H]1Cc2ccccc2N1C(=O)COc1ccc(F)c(F)c1` [Compound 37], with 3.2 mL min^–1 g^–1; and `CNC(=O)C1Cc2cc(Br)ccc2N1C(=O)COc1ccc(F)cc1` (centres unmarked) [Compound 60], with 4.6 mL min^–1 g^–1.
The same measure, in the same setting: then `CNC(=O)C1Cc2ccccc2N1C(=O)Cc1ccc(C(C)C)cc1` (centres unmarked) [Compound 41], with 35 mL min^–1 g^–1; and `CNC(=O)C1Cc2ccccc2N1C(=O)Cc1cccc2ccccc12` (centres unmarked) [Compound 39], with 28 mL min^–1 g^–1.

System in a further series: not listed separately
Briefly: Microsomal intrinsic clearance (Clint), rat. Type of series: in vitro ADME. The conditions noted are these: rat liver microsomes, 0.5 μM compound. On the procedure:
as §1, §2
(Liver microsomes are a subcellular fraction often used to study metabolism.)
Regarding `CNC(=O)C1Cc2cc(F)c(F)cc2N1C(=O)COc1ccc(F)cc1` (centres unmarked) [Compound 57], the “microsomal intrinsic clearance, rat” value is recorded as 2.8 mL min^–1 g^–1.
`CNC(=O)C1Cc2ccccc2N1C(=O)COc1ccc(C)cc1` (centres unmarked) [Compound 34]: the “microsomal intrinsic clearance, rat” value is on record as 47 mL min^–1 g^–1.
The same measure, in the same setting: next, `CNC(=O)C1Cc2ccccc2N1C(=O)COc1ccccc1` (centres unmarked) [Compound 31]: 9.0 mL min^–1 g^–1; `CNC(=O)C1Cc2cc(F)ccc2N1C(=O)COc1ccc(Cl)cc1` (centres unmarked) [Compound 54]: 5.3 mL min^–1 g^–1.
As to `CNC(=O)C1Cc2c(cc(F)c(F)c2F)N1C(=O)COc1ccc(Cl)cc1` (centres unmarked) [Compound 59], the “microsomal intrinsic clearance, rat” value turned out to be 6.7 mL min^–1 g^–1.

System in another series: not listed separately
The series can be described thus: Microsomal intrinsic clearance (Clint), human. The conditions noted are these: human liver microsomes, 0.5 μM compound. The class given is in vitro ADME. On the procedure: as §1, §2
As to `CNC(=O)C1Cc2cc(F)c(F)cc2N1C(=O)COc1ccc(F)cc1` (centres unmarked) [Compound 57], the “microsomal intrinsic clearance, human” value turned out to be 1.9 mL min^–1 g^–1.
On the same count and under the same terms, next, `CNC(=O)C1Cc2ccccc2N1C(=O)COc1ccc(C)cc1` (centres unmarked) [Compound 34]: 2.4 mL min^–1 g^–1; `CNC(=O)C1Cc2ccccc2N1C(=O)COc1ccccc1` (centres unmarked) [Compound 31]: 1.4 mL min^–1 g^–1.
The same measure, in the same setting: next, `CNC(=O)C1Cc2cc(F)ccc2N1C(=O)COc1ccc(Cl)cc1` (centres unmarked) [Compound 54]: 1.6 mL min^–1 g^–1; `CNC(=O)C1Cc2c(cc(F)c(F)c2F)N1C(=O)COc1ccc(Cl)cc1` (centres unmarked) [Compound 59]: 4.3 mL min^–1 g^–1.

The next series deals with bloodstream form T. brucei brucei. Briefly: T. b. brucei whole cell parasite (trypanosome growth) assay.
Conditions: not given
The class given is cell-based, Trypanosoma brucei brucei. On the procedure: This was conducted as previously described.[27] Cell culture plates were stamped with 1 μL of an appropriate stock concentration of test compound, followed by addition of 200 μL of trypanosome culture (HMI9-T, 10% FCS) to each well at a density of 2000 cells per well (except column 12 receiving media only). […] Potency was carried out using 10-point dose–response curves.
For `CNC(=O)C1Cc2ccccc2N1C(=O)Cc1cccc2ccccc12` (centres unmarked) [Compound 39], the “T. b. brucei potency in words” value is reported as “complete loss of potency”.

The same series, now with this note: T. b. brucei EC50, compared to 1 (parent).
For `CNC(=O)C1N(C(=O)COc2ccc(Cl)cc2)c2ccccc2C1(C)C` (centres unmarked) [Compound 63], the loss in potency is recorded as about 34 fold.
Still for that read-out and setting: next, `CCCCNC(=O)C1Cc2ccccc2N1C(=O)COc1ccc(Cl)cc1` (centres unmarked) [Compound 50]: about 700 fold; `O=C(NC1CC1)C1Cc2ccccc2N1C(=O)COc1ccc(Cl)cc1` (centres unmarked) [Compound 51]: about 14 fold.

Still in this series, the particulars now being: T. b. brucei EC50, compared to 21.
As for `CNC(=O)C1Cc2ccccc2N1C(=O)Cc1ccc(Cl)cc1` (centres unmarked) [Compound 40], the improvement in activity entry was “approximately 3 fold”.

Still in this series, the particulars now being: Trypanosoma brucei, mean of two or more determinations; 69 h + 4 h resazurin; read-out: T. b. brucei EC50.
Take `CCNC(=O)C1Cc2ccccc2N1C(=O)COc1ccc(Cl)cc1` (centres unmarked) [Compound 49]: the EC50 was determined as 90 nM.
The same measure, in the same setting: next, `CNC(=O)C1Cc2cc(F)c(F)cc2N1C(=O)COc1ccc(F)cc1` (centres unmarked) [Compound 57]: 90 nM; `CNC(=O)C1N(C(=O)COc2ccc(Cl)cc2)c2ccccc2C1(C)C` (centres unmarked) [Compound 63]: 920 nM.
As for `CCCCNC(=O)C1Cc2ccccc2N1C(=O)COc1ccc(Cl)cc1` (centres unmarked) [Compound 50], the EC50 is 19000 nM.
On the same count and under the same terms, next, `CNC(=O)C1Cc2ccccc2N1C(=O)Cc1ccc(Cl)cc1` (centres unmarked) [Compound 40]: 80 nM; `CNC(=O)C1Cc2ccccc2N1C(=O)Cc1ccc(C(F)(F)F)cc1` (centres unmarked) [Compound 42]: 100 nM.
Same read-out and setting: then `CNC(=O)C1Cc2ccccc2N1C(=O)COc1ccc(C)cc1` (centres unmarked) [Compound 34], with 30 nM.
The same measure, in the same setting: next, `CNC(=O)C1Cc2ccccc2N1C(=O)Cc1ccc(F)cc1F` (centres unmarked) [Compound 44]: 2300 nM.
Turning to `CNC(=O)C1Cc2cc(F)cc(F)c2N1C(=O)COc1ccc(F)cc1` (centres unmarked) [Compound 58], the 50% effective concentration (EC50) came out at 80 nM.
`O=C(NC1CC1)C1Cc2ccccc2N1C(=O)COc1ccc(Cl)cc1` (centres unmarked) [Compound 51]: the EC50 worked out at 410 nM.
`CNC(=O)C1Cc2ccccc2N1C(=O)COc1ccccc1` (centres unmarked) [Compound 31]: the half-maximal effective concentration (EC50) came out at 40 nM.
The same measure, in the same setting: then `CNC(=O)C1Cc2ccccc2N1C(=O)Cc1ccc(F)cc1` (centres unmarked) [Compound 43], with 100 nM; and `CNC(=O)C1Cc2cc(F)ccc2N1C(=O)COc1ccc(Cl)cc1` (centres unmarked) [Compound 54], with 60 nM; and `CNC(=O)C1Cc2c(cc(F)c(F)c2F)N1C(=O)COc1ccc(Cl)cc1` (centres unmarked) [Compound 59], with 70 nM.
Take `CNC(=O)[C@H]1Cc2ccccc2N1C(=O)COc1ccc(F)c(F)c1` [Compound 37]: the EC50 was determined as 30 nM.
As to `CNC(=O)C1Cc2cc(Br)ccc2N1C(=O)COc1ccc(F)cc1` (centres unmarked) [Compound 60], the EC50 is 80 nM.
Same read-out and setting: then `CNC(=O)C1Cc2ccccc2N1C(=O)Cc1ccc(C(C)C)cc1` (centres unmarked) [Compound 41], with 770 nM.

Still in this series, the particulars now being: Trypanosoma brucei, read-out: T. b. brucei EC50, mean of two or more determinations; 69 h + 4 h resazurin.
As to `CNC(=O)C1Cc2ccccc2N1C(=O)Cc1cccc2ccccc12` (centres unmarked) [Compound 39], the concentration for a half-maximal effect (EC50) amounted to 50000 nM.

The same series, now with this note: mean of two or more determinations; 69 h + 4 h resazurin; read-out: T. b. brucei EC50.
With `CNC(=O)C1Cc2ccccc2N1C(=O)Cc1ccc(C(F)(F)F)cc1` (centres unmarked) [Compound 42], the concentration for a half-maximal effect (EC50) turned out to be 110 nM.
For `CNC(=O)C1Cc2ccccc2N1C(=O)Cc1ccc(F)cc1` (centres unmarked) [Compound 43], the concentration giving a half-maximal response (EC50) was 110 nM.

System in a further series: not listed separately
The series can be described thus: in vitro. The conditions noted are these: human.
Procedure: Proliferation assays using bloodstream form T. brucei brucei and human MRC-5 fibroblasts were conducted using a modification of the cell viability assay as previously reported.[27],[39]
MRC-5 cells (2000 cells per well) were seeded in 200 μL of DMEM, 10% FCS, and allowed to adhere overnight. One microliter of test compound was added to each well on the day of assay initiation.
The final DMSO level was 0.5% in all cases.
In turn, `CNC(=O)C1Cc2ccccc2N1C(=O)Cc1cccc2ccccc12` (centres unmarked) [Compound 39] registered a concentration giving a half-maximal response (EC50) at 69 h of over 50000 nM.

Staying with this series, now noted: human, MRC-5 fibroblasts.
`CCNC(=O)C1Cc2ccccc2N1C(=O)COc1ccc(Cl)cc1` (centres unmarked) [Compound 49] had an EC50 at 69 h of over 50000 nM.
The same measure, in the same setting: then `CNC(=O)C1Cc2cc(F)c(F)cc2N1C(=O)COc1ccc(F)cc1` (centres unmarked) [Compound 57], with over 50000 nM.
On the same count and under the same terms, next, `CNC(=O)C1N(C(=O)COc2ccc(Cl)cc2)c2ccccc2C1(C)C` (centres unmarked) [Compound 63]: over 50000 nM; `CCCCNC(=O)C1Cc2ccccc2N1C(=O)COc1ccc(Cl)cc1` (centres unmarked) [Compound 50]: over 50000 nM.
Still for that read-out and setting: then `CNC(=O)C1Cc2ccccc2N1C(=O)Cc1ccc(Cl)cc1` (centres unmarked) [Compound 40], with over 50000 nM; and `CNC(=O)C1Cc2ccccc2N1C(=O)Cc1ccc(C(F)(F)F)cc1` (centres unmarked) [Compound 42], with over 50000 nM; and `CNC(=O)C1Cc2ccccc2N1C(=O)COc1ccc(C)cc1` (centres unmarked) [Compound 34], with over 50000 nM.
With `CNC(=O)C1Cc2ccccc2N1C(=O)Cc1ccc(F)cc1F` (centres unmarked) [Compound 44], the EC50 at 69 h was over 50000 nM.
The same measure, in the same setting: next, `CNC(=O)C1Cc2cc(F)cc(F)c2N1C(=O)COc1ccc(F)cc1` (centres unmarked) [Compound 58]: over 50000 nM.
Still for that read-out and setting: then `O=C(NC1CC1)C1Cc2ccccc2N1C(=O)COc1ccc(Cl)cc1` (centres unmarked) [Compound 51], with over 50000 nM; and `CNC(=O)C1Cc2ccccc2N1C(=O)COc1ccccc1` (centres unmarked) [Compound 31], with over 50000 nM; and `CNC(=O)C1Cc2ccccc2N1C(=O)Cc1ccc(F)cc1` (centres unmarked) [Compound 43], with over 50000 nM.
Same read-out and setting: next, `CNC(=O)C1Cc2cc(F)ccc2N1C(=O)COc1ccc(Cl)cc1` (centres unmarked) [Compound 54]: over 50000 nM; `CNC(=O)C1Cc2c(cc(F)c(F)c2F)N1C(=O)COc1ccc(Cl)cc1` (centres unmarked) [Compound 59]: over 50000 nM.
`CNC(=O)[C@H]1Cc2ccccc2N1C(=O)COc1ccc(F)c(F)c1` [Compound 37] yielded an EC50 at 69 h of over 50000 nM.
Still for that read-out and setting: then `CNC(=O)C1Cc2cc(Br)ccc2N1C(=O)COc1ccc(F)cc1` (centres unmarked) [Compound 60], with over 50000 nM.
Same read-out and setting: next, `CNC(=O)C1Cc2ccccc2N1C(=O)Cc1ccc(C(C)C)cc1` (centres unmarked) [Compound 41]: over 50000 nM.

Usually EC50 stands for the midpoint of the concentration-response curve.
